The target in the first assay is T1, mutant form of the human GPR119 receptor (Homo sapiens, UniProt Q8TDV5, S329A/T327A).
T1 construct: X1, the printed 24-residue N-terminal leader ([…]) that replaces Met1; (N); expressed in transfected cells
T1 sequence (Q8TDV5 2-335 T327A/S329A): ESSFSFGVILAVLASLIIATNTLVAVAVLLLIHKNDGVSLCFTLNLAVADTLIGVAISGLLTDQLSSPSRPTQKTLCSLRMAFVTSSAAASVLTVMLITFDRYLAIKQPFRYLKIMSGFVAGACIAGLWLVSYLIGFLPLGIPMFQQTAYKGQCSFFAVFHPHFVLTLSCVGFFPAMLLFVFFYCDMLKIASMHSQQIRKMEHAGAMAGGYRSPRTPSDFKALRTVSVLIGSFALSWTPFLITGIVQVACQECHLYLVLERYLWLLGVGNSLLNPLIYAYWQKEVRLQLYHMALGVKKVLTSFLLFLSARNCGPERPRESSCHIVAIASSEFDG
As to the kind of experiment: LANCE cAMP-384 assay in HEK293 cells stably expressing mutant human GPR119. The note with it: mutant human GPR119 (SEQ ID No. 1), 20 min at 37 C. It counts as cell-based. As for the experimental part: Quantitative detection of cAMP accumulation from cells expressing human GPR119 receptor is achieved using Perkin Elmer's LANCE cAMP-384 Kit (Cat #AD0264) according to the manufacturer's protocol. Briefly, HEK293 cells stably expressing a mutant form of the human GPR119 receptor as assay tool (Methionine 1 replaced with the amino acid sequence […], and T327 & S329 changed to alanines; SEQ ID No. 1) are grown to 50-70% confluency in cell culture media (DMEM, 10% heat inactivated Fetal Bovine Serum, 50 I.U./mL penicillin, 50 μg/mL streptomycin, 10 mM HEPES, 20 μg/mL G418 Sulfate). On the day of the assay, GPR119 stable HEK293 cells are lifted from the tissue culture plate and 1000 cells/well are incubated along with various concentrations of test compounds for 20 min at 37+ C. Detection Buffer (50mM HEPES, 10mM calcium chloride, 0.35% Triton X-100, 1 mg/mL BSA) containing cAMP-specific antibody is then added to all wells and allowed to equilibrate in the dark for 10 minutes at room temperature. Upon equilibration, Detection Buffer containing europium-labeled cAMP tracer complex is added to all wells and allowed to react for 1 hour at room temperature. After 1 hour, bound europium-labeled cAMP tracer is measured using a Perkin Elmer Envision plate reader. The quantity of cAMP generated in each well is derived from a standard curve. EC50 is determined using nonlinear regression analysis of the cAMP values over a range of agonist concentration (12 points spanning the range from 30 μM to 100 pM).
In the case of `O=C(c1ccc(-n2cncn2)c(F)c1)N(C1CC1)[C@@H]1CCN(CC2(C(F)(F)F)CC2)C[C@@H]1F` (single isomer, unassigned) [Example 11], the midpoint of the response, the EC50, lay at 10 nM.

With `Cc1nccn1-c1ncc(C(=O)N(C2CC2)[C@@H]2CCN(CC3(C(F)(F)F)CC3)C[C@@H]2F)cn1` (single isomer, unassigned) [Example 14], the midpoint of the response, the EC50, lay at 27 nM.

Consider `Cc1nnnn1-c1ccc(C(=O)N(C2CC2)[C@@H]2CCN(CC3(C(F)(F)F)CC3)C[C@@H]2F)cn1` (single isomer, unassigned) [Example 12], for which the EC50 was 12 nM.

On to `Cc1ncn(-c2cnc(C(=O)N(C3CC3)[C@@H]3CCN(CC4(C(F)(F)F)CC4)C[C@@H]3F)cn2)n1` (single isomer, unassigned) [Example 15], for which the EC50 was found to be 30 nM. This EC50 lies about 2.5-fold higher than the previous one.

The target in a further assay is T2, human GPR119 (Homo sapiens, UniProt Q8TDV5).
T2 construct: expressed in transfected cells; host or cells: MIN6 (mouse insulinoma) cells, stably transfected
T2 sequence (Q8TDV5 1-335): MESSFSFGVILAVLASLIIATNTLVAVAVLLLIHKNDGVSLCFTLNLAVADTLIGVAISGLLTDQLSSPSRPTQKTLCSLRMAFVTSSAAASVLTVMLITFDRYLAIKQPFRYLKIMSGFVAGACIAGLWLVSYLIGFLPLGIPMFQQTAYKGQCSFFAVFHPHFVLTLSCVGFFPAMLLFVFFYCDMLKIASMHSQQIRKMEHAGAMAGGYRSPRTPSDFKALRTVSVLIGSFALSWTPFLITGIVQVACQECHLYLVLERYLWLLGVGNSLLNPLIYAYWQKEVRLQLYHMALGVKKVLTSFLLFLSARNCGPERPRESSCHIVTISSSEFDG
In words: AlphaScreen cAMP assay in MIN6 cells stably transfected with human GPR119. The class given is cell-based. The note with it: Min-6/hGPR119 cells, 45 minutes incubation at room temperature. As for the experimental part: The compounds of formula I according to the invention modulate the activity of the G-protein-coupled receptor GPR119. The effect of the compounds on the activation of GPR119 and on the stimulation of intracellular cAMP concentration is determined using the AlphaScreen cAMP Assay Kit (Cat. No. #6760625R) made by PerkinElmer.
MIN6 cells [Miyazaki Jet al. Endocrinology. 1990 July; 127(1):126-32] are stably transfected with an expression vector for human GPR119 cDNA (Acc. No. NP_848566). Min-6 / hGPR119 cells are cultured in DMEM, 10% FBS, 50 μM β-mercaptoethanol, 0.3 mg/mL Geniticin, 2 mM GlutaMAX at 37° C. 5% CO2. For the assay, the cells are seeded in Optiplates (white, 384-well, 160W-barcoded, TC, sterile with lid, Cat. No. #6007688 (Perkin Elmer); 10000 cells/well; 50 μl). The plates covered with lids are then incubated for 24 hours at 37° C./5% CO2. After the medium is aspirated from the wells completely, 10 μl of the test compound are added, the compounds are diluted using stimulating buffer (140 mM NaCl, 3.6 mM KCl, 0.5 mM NaH2PO4, 0.5 mM MgSO4, 1.5 mM CaCl2, 10 mM Hepes, 5 mM NaHCO3; pH 7.4. 0.5 mM IBMX and 0.1% BSA, the final DMSO concentration is 1%). After 45 minutes incubation at room temperature (approx. 20° C.), the cAMP concentrations are determined using the AlphaScreen cAMP Assay Kit (Cat.No.# 6760625R from PerkinElmer).
For the molecule `O=C(c1ccc(-c2cnco2)cc1)N(C1CC1)C1CCN(CC2(C(F)(F)F)CC2)CC1` [Example 3, N-Cyclopropyl-4-oxazol-5-yl-N-[1-(1-trifluoromethyl-cyclopropylmethyl)-piperidin-4-yl]-benzamide], the EC50 stood at 79 nM.

Take `O=C(c1cnc(-n2cncn2)cn1)N(C1CC1)[C@@H]1CCN(CC2(C(F)(F)F)CC2)C[C@@H]1F` (single isomer, unassigned) [Example 13]: the response was half-maximal at 2 nM (EC50). This EC50 lies about 40-fold lower than the previous one.

The molecule `CC(C)(F)CN1CCC(N(C(=O)c2cc(-c3ccc(C#N)cc3F)on2)C2CC2)CC1` [Example 10, 5-(4-Cyano-2-fluoro-phenyl)-isoxazole-3-carboxylic acid cyclopropyl-[1-(2-fluoro-2-methyl-propyl)-piperidin-4-yl]-amide] showed an EC50 of 19 nM.

Regarding `CC(C)(F)CN1CCC(N(C(=O)c2ccc(-c3cnco3)c(F)c2)C2CC2)CC1` [Example 4, N-Cyclopropyl-3-fluoro-N[1-(2-fluoro-2-methyl-propyl)-piperidin-4-yl]-4-oxazol-5-yl-benzamide], the EC50 was 63 nM.

On to `O=C(c1ccc(-c2cnco2)cc1)N(C1CC1)C1CCN(CCC(F)(F)F)CC1` [Example 2, N-Cyclopropyl-4-oxazol-5-yl-N-[1-(3,3,3-trifluoro-propyl)-piperidin-4-yl]-benzamide], for which the EC50 is 643 nM.

Consider `CC(C)(F)CN1CCC(N(C(=O)c2cc(-c3ccc(C#N)cc3)on2)C2CC2)CC1` [Example 6, 5-(4-Cyano-phenyl)-isoxazole-3-carboxylic acid cyclopropyl-[1-(2-fluoro-2-methyl-propyl) -piperidin-4-yl]-amide], for which the EC50 came to 50 nM.

`N#Cc1ccc(-c2cc(C(=O)N(C3CC3)C3CCN(CC4(C(F)(F)F)CC4)CC3)no2)cc1` [Example 5, 5-(4-Cyano-phenyl)-isoxazole-3-carboxylic acid cyclopropyl-[1-(1-trifluoromethyl-cyclopropylmethyl) -piperidin-4-yl]-amide] showed an EC50 of 27 nM.

With `CC(C)(F)CN1CCC(N(C(=O)c2cc(-c3ccc(C#N)cc3F)no2)C2CC2)CC1` [Example 8, 3-(4-Cyano-2-fluoro-phenyl)-isoxazole-5-carboxylic acid cyclopropyl-[1-(2-fluoro-2-methyl-propyl)-piperidin-4-yl]-amide], a half-maximal response (EC50) required 22 nM.

In the case of `N#Cc1ccc(-c2cc(C(=O)N(C3CC3)C3CCN(CC4(C(F)(F)F)CC4)CC3)no2)c(F)c1` [Example 9, 5-(4-Cyano-2-fluoro-phenyl)-isoxazole-3-carboxylic acid cyclopropyl-[1-(1-trifluoromethyl-cyclopropylmethyl)-piperidin-4-yl]-amide], it took 6 nM to reach a half-maximal effect (EC50).

In turn, `N#Cc1ccc(-c2cc(C(=O)N(C3CC3)C3CCN(CC4(C(F)(F)F)CC4)CC3)on2)c(F)c1` [Example 7, 3-(4-Cyano-2-fluoro-phenyl)-isoxazole-5-carboxylic acid cyclopropyl-[1-(1-trifluoromethyl-cyclopropylmethyl)-piperidin-4-yl]-amide] came in with an EC50 of 9 nM. Against the preceding molecule, the EC50 is about 1.5-fold higher.

Molecule `CC(C)(F)CN1CCC(N(C(=O)c2ccc(-c3cnco3)cc2)C2CC2)CC1` [Example 1, N-Cyclopropyl-N-[1-(2-fluoro-2-methyl-propyl)-piperidin-4-yl]-4-oxazol-5-yl-benzamide] yielded an EC50 of 456 nM.

Source of the values: US8927726B2, “N-cyclopropyl-N-piperidinyl-amide derivatives, pharmaceutical compositions containing them and uses thereof” (Boehringer Ingelheim International GmbH, priority 2012, dated 2015).
